Measurements as given in US12077503B2, “Substituted cyclic amides and their use as herbicides” (FMC CORPORATION, priority 2015, dated 2024).

What was measured:
Assay type in all cases: in vivo
[1] = system: ryegrass, Italian (Italian ryegrass, Lolium multiflorum); assay: Test A postemergence; details: Lolium multiflorum, post-emergence, 240 h; for pest or weed control at 125 g/ha: 125 g ai/ha, postemergence, visual injury vs untreated controls after approx. 10 d, 0 = no effect, 100 = complete control, read-out: Ryegrass, Italian plant response rating (0 to 100 scale); for pest or weed control at 500 g/ha: Postemergence, 500 g ai/ha, visual injury, 0 to 100 scale (0 no effect, 100 complete control), approx. 10 d, read-out: Plant response rating, Ryegrass, Italian
How it was run: (§1)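 Ratings of 0 (no effect) to 100 (complete control) come from visual comparison with untreated controls roughly 10 d after treatment. Test chemicals, formulated in a non-phytotoxic solvent mixture with surfactant, were applied either as a preemergence directed soil spray on seeded soil or postemergence to one- to two-leaf plants 2 to 10 cm tall.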

[2] = system: giant foxtail (Setaria faberii); assay: Test A postemergence; details: Setaria faberi, post-emergence, 240 h; for pest or weed control at 125 g/ha: 125 g ai/ha, postemergence, visual injury vs untreated controls after approx. 10 d, 0 = no effect, 100 = complete control, read-out: Foxtail, Giant plant response rating (0 to 100 scale); for pest or weed control at 500 g/ha: Postemergence, 500 g ai/ha, visual injury, 0 to 100 scale (0 no effect, 100 complete control), approx. 10 d, read-out: Plant response rating, Foxtail, Giant
How it was run: as §1

Kochia (Kochia scoparia) [3] = assay: Test A postemergence; details: Bassia scoparia, post-emergence, 240 h; for pest or weed control at 125 g/ha: 125 g ai/ha, postemergence, visual injury vs untreated controls after approx. 10 d, 0 = no effect, 100 = complete control, read-out: Kochia plant response rating (0 to 100 scale); for pest or weed control at 500 g/ha: Postemergence, 500 g ai/ha, visual injury, 0 to 100 scale (0 no effect, 100 complete control), approx. 10 d, read-out: Plant response rating, Kochia
How it was run: as §1

[4] = system: pigweed (Amaranthus retroflexus); assay: Test A postemergence; details: Amaranthus retroflexus, post-emergence, 240 h; for pest or weed control at 125 g/ha: 125 g ai/ha, postemergence, visual injury vs untreated controls after approx. 10 d, 0 = no effect, 100 = complete control, read-out: Pigweed plant response rating (0 to 100 scale); for pest or weed control at 500 g/ha: Postemergence, 500 g ai/ha, visual injury, 0 to 100 scale (0 no effect, 100 complete control), approx. 10 d, read-out: Plant response rating, Pigweed
How it was run: as §1

[5] = system: ryegrass, Italian (Italian ryegrass, Lolium multiflorum); assay: Test A preemergence; details: Lolium multiflorum, pre-emergence, 240 h, preemergence, 0 to 100 scale where 0 is no effect and 100 is complete control, read-out: Ryegrass, Italian plant response rating; for pest or weed control at 125 g/ha: 125 g ai/ha, visual injury rating, approximately 10 d; for pest or weed control at 500 g/ha: 500 g ai/ha
How it was run: as §1

[6] = system: giant foxtail (Setaria faberii); assay: Test A preemergence; details: Setaria faberi, pre-emergence, 240 h, preemergence, 0 to 100 scale where 0 is no effect and 100 is complete control, read-out: Foxtail, Giant plant response rating; for pest or weed control at 125 g/ha: 125 g ai/ha, visual injury rating, approximately 10 d; for pest or weed control at 500 g/ha: 500 g ai/ha
How it was run: as §1

Kochia (Kochia scoparia) [7] = assay: Test A preemergence; details: Bassia scoparia, pre-emergence, 240 h, preemergence, 0 to 100 scale where 0 is no effect and 100 is complete control, read-out: Kochia plant response rating; for pest or weed control at 125 g/ha: 125 g ai/ha, visual injury rating, approximately 10 d; for pest or weed control at 500 g/ha: 500 g ai/ha
How it was run: as §1

[8] = system: barnyardgrass (Echinochloa crus-galli); assay: Test A preemergence; details: Echinochloa crus-galli, pre-emergence, 240 h, preemergence, 0 to 100 scale where 0 is no effect and 100 is complete control, read-out: Barnyardgrass plant response rating; for pest or weed control at 125 g/ha: 125 g ai/ha, visual injury rating, approximately 10 d; for pest or weed control at 500 g/ha: 500 g ai/ha
How it was run: as §1

[9] = system: pigweed (Amaranthus retroflexus); assay: Test A preemergence; details: Amaranthus retroflexus, pre-emergence, 240 h, preemergence, 0 to 100 scale where 0 is no effect and 100 is complete control, read-out: Pigweed plant response rating; for pest or weed control at 125 g/ha: 125 g ai/ha, visual injury rating, approximately 10 d; for pest or weed control at 500 g/ha: 500 g ai/ha
[10] = system: ragweed (common ragweed, Ambrosia elatior); assay: Test A preemergence; details: Ambrosia artemisiifolia, pre-emergence, 240 h, preemergence, 0 to 100 scale where 0 is no effect and 100 is complete control, read-out: Ragweed plant response rating; for pest or weed control at 125 g/ha: 125 g ai/ha, visual injury rating, approximately 10 d; for pest or weed control at 500 g/ha: 500 g ai/ha
How it was run: as §1

[11] = system: sedge, umbrella (small-flower umbrella sedge, Cyperus difformis); assay: Test B flooded paddy test; details: Cyperus difformis, 250 g ai/ha, Flood; 0 to 100 scale where 0 is no effect and 100 is complete control; read-out: Sedge, Umbrella plant response rating
How it was run: (§2)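 Compound goes directly into floodwater once pots are flooded 3 cm above soil, targeting plants at two leaves; the water depth is then held for the test duration. Plants sit 13–15 d in a greenhouse and are rated visually, 100 denoting complete control.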

[12] = system: barnyardgrass (Echinochloa crus-galli); assay: Test B flooded paddy test; details: Echinochloa crus-galli, 250 g ai/ha, Flood; 0 to 100 scale where 0 is no effect and 100 is complete control; read-out: Barnyardgrass plant response rating
How it was run: as §2

[13] = system: ducksalad (Heteranthera limosa); assay: Test B flooded paddy test; details: Heteranthera limosa, 250 g ai/ha, Flood; 0 to 100 scale where 0 is no effect and 100 is complete control; read-out: Ducksalad plant response rating
How it was run: as §2

rice (Oryra sativa) = assay: Test B flooded paddy test; details: Oryza sativa, 250 g ai/ha, Flood; 0 to 100 scale where 0 is no effect and 100 is complete control; read-out: Rice plant response rating
How it was run: as §2

SMILES	pest or weed control at 125 g/ha [1] [%]	pest or weed control at 500 g/ha [1] [%]	pest or weed control at 125 g/ha [2] [%]	pest or weed control at 500 g/ha [2] [%]	pest or weed control at 125 g/ha (Kochia (Kochia scoparia) [3]) [%]	pest or weed control at 500 g/ha (Kochia (Kochia scoparia) [3]) [%]	pest or weed control at 125 g/ha [4] [%]	pest or weed control at 500 g/ha [4] [%]	pest or weed control at 125 g/ha [5] [%]	pest or weed control at 500 g/ha [5] [%]	pest or weed control at 125 g/ha [6] [%]	pest or weed control at 500 g/ha [6] [%]	pest or weed control at 125 g/ha (Kochia (Kochia scoparia) [7]) [%]	pest or weed control at 500 g/ha (Kochia (Kochia scoparia) [7]) [%]	pest or weed control at 125 g/ha [8] [%]	pest or weed control at 500 g/ha [8] [%]	pest or weed control at 125 g/ha [9] [%]	pest or weed control at 500 g/ha [9] [%]	pest or weed control at 125 g/ha [10] [%]	pest or weed control at 500 g/ha [10] [%]	further results
CCc1ccc([C@H]2CNC(=O)[C@@H]2C(=O)Nc2c(F)cccc2F)cc1 [Compound 1248]	0	0	0	20	0	0	0	0	0	0	0	50	0	0	70	90	0	0	0	0	pest or weed control at 250 g/ha [11]: 0%; pest or weed control at 250 g/ha [12]: 15%; pest or weed control at 250 g/ha [13]: 70%; pest or weed control at 250 g/ha (rice (Oryra sativa)): 0%
CN1C[C@H](c2ccc(F)c(C#N)c2)[C@@H](C(=O)Nc2cccc(F)c2F)C1=O [Compound 1255]	20	40	80	80	20	50	0	30	20	40	100	100	60	80	100	100	60	90	20	70	pest or weed control at 250 g/ha [11]: 0%; pest or weed control at 250 g/ha [12]: 65%; pest or weed control at 250 g/ha [13]: 100%; pest or weed control at 250 g/ha (rice (Oryra sativa)): 0%
CN1C[C@H](c2ccc(C(F)F)cc2)[C@@H](C(=O)Nc2ccc(F)c(F)c2F)C1=O [Compound 1260]	60	80	80	90	60	70	50	70	50	60	90	90	80	90	90	100	90	90	80	90	pest or weed control at 250 g/ha [11]: 0%; pest or weed control at 250 g/ha [12]: 80%; pest or weed control at 250 g/ha [13]: 100%; pest or weed control at 250 g/ha (rice (Oryra sativa)): 50%
